The target in assay [1] is T1, protein-protein interaction between hSOS1 and hKRASG12C (Homo sapiens, UniProt Q07889).
T1 construct: GST-hSOS1, 564-1049aa expressed and purified in-house
T1 sequence (Q07889 564-1049): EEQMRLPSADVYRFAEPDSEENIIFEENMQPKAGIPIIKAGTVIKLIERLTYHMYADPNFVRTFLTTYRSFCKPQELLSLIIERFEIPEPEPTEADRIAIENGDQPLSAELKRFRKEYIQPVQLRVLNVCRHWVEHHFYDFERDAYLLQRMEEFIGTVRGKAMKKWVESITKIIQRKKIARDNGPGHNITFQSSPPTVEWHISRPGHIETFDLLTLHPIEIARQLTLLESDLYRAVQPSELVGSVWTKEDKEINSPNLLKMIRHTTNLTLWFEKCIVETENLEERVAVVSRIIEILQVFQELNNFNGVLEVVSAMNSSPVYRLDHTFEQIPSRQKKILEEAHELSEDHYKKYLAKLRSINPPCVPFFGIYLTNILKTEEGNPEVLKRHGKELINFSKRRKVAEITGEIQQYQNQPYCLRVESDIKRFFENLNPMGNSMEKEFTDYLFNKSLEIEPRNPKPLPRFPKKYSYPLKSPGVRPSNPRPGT
The assay can be described thus: KRAS-SOS1 interaction assay (HTRF). It counts as binding. As to conditions: GST-hSOS1 564-1049aa, HIS-hKRASG12C, read-out: KRAS-SOS1 Interaction inhibition IC50. As for the experimental part: Interaction assay was conducted to evaluate the ability of the compounds to disrupt the protein-protein interactions between hSOS1 and hKRASG12C. Inhibitory effect of compounds on GST-hSOS1, 564-1049aa expressed and purified in-house and HIS-hKRASG12C (R06-32DH, SignalChem) interaction was assessed using HTRF detection technology in biochemical assay. Compounds were pre-incubated with 10-50 nM working solution of hSOS1 per well of a 384 well plate (Perkin Elmer, Cat #6007290) for 10 min at 20° C. in the assay buffer containing 5 mM HEPES, pH 7.4, 150 mM NaCl, 10 mM EDTA, 1 mM DTT, 0.05% BSA fraction V and 0.0025% Igepal. Reaction was initiated by adding 100-300 nM working solution of hKRASG12C in assay buffer. Total assay volume was 15 μL. Reaction was continued for 30-60 min at 20° C. Then detection solution containing MAb Anti-GST-d2 (#61GSTDLA, Cisbio BioAssays) and MAb Anti-HIS-Tb (#61HISTLA, Cisbio BioAssays), all prepared in HTRF detection buffer (#61DB10RDF, Cisbio BioAssays) was added and further incubated for 30-60 min at 20° C. HTRF signal was recorded in PHERAStar microplate reader. Ratio of signal obtained at 665 nm and 620 nm was used to compute the percent inhibition of compound utilizing the following formula: […]

Assay [2] addresses T2, nucleotide exchange on hKRASG12C mediated by hSOS1 (Homo sapiens, UniProt Q07889).
T2 construct: HIS-hSOS1, 564-1049aa mediated GTP loading onto GST-hKRASG12C; His (N); made in house
T2 sequence (Q07889 564-1049): T1 sequence (Q07889 564-1049)
The experiment in a line: Guanine nucleotide exchange assay (GNEA, HTRF). To be noted: HIS-hSOS1 564-1049aa mediated GTP loading onto GST-hKRASG12C 1-169aa, read-out: Guanine nucleotide exchange inhibition IC50. Format: biochemical. As for the experimental part: Example-154: Guanine nucleotide exchange assay (GNEA) GNEA assay was conducted to evaluate the effects of compounds on the nucleotide exchange on hKRASG12C mediated by hSOS1. Inhibitory effect of compounds on HIS-hSOS1, 564-1049aa mediated GTP loading onto GST-hKRASG12C, 1-169aa both expressed and purified in-house was assessed using HTRF detection technology in biochemical assay. Compounds were pre-incubated with hSOS1 working solution containing 10-50 nM hSOS1 and 200 nM EDA-GTP-DY-647P1 (Custom manufactured, Jena Biosciences) per well of a 384 well plate (Perkin Elmer, Cat #6007290) for 10 min at 20° C. in the assay buffer containing 10 mM HEPES, pH 7.4, 150 mM NaCl, 5 mM MgCl2, 1 mM DTT, 0.05% BSA fraction V and 0.0025% Igepal. Reaction was initiated by adding working solution of hKRASG12C containing 25-125 nM hKRASG12C and MAb Anti-GST-Tb (#61GSTTLA, Cisbio BioAssays) in assay buffer. Total assay volume was 15 μL. Reaction was continued for 30-60 min at 20° C. HTRF signal was recorded in PHERAStar microplate reader. Ratio of signal obtained at 665 nm and 620 nm was used to compute the percent inhibition of compound as follows.

For assay [3], the system named is pERK after EGF stimulation in DLD1 cells. The experiment in a line: ERK phosphorylation assay (alphascreen pERK). Format: cell-based. To be noted: Homo sapiens, DLD-1, 2 h compound, 200 ng/ml hEGF for 5 minutes, read-out: ERK phosphorylation inhibition IC50. In short, it runs like this: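 DLD1 cells pretreated with test compounds for 2 h, then stimulated with 200 ng/ml hEGF for 5 min. Lysates assayed by AlphaScreen SureFire for ERK1/2 p-T202/Y204, read after 2 h at 25–28 °C. % inhibition relative to the stimulated-minus-unstimulated vehicle window.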
For orientation: In Alpha technology, singlet oxygen from a donor bead excites a nearby acceptor bead.

For the molecule `Cc1nc(N[C@H](C)c2cccc(C(F)(F)C(C)(C)O)c2F)c2cc3c(cc2n1)OC(C)C(=O)N3C` (single isomer, unassigned) [Compound 31b], the IC50 (as a rule, the concentration needed to halve the response being measured) in assay [1] lay in the range of 1 to 10 nM; in assay [2], 1 to 30 nM; in assay [3] it was 1 to 200 nM.
Taken in the same sequence, the figures for `Cc1nc(N[C@H](C)c2cccc(C(F)(F)C(C)(C)O)c2F)c2cc3c(cc2n1)OC(C(C)C)C(=O)N3C` (single isomer, unassigned) [Compound 32b] were 1 to 10 nM, 1 to 30 nM and 1 to 200 nM.
As to `Cc1nc(N[C@H](C)c2cccc(C(F)(F)CO)c2F)c2cc3c(cc2n1)OC(C)CN3C` (single isomer, unassigned) [Compound 36b], the IC50 lay in the range of 1 to 10 nM in assay [1], 1 to 30 nM in assay [2] and 1 to 200 nM in assay [3].
On the same counts, the results for `COCC(C)(O)C(F)(F)c1cccc([C@@H](C)Nc2nc(C)nc3cc4c(cc23)N(C)C(=O)C(C)(C)O4)c1F` (single isomer, unassigned) [Compound 53b] are 11 to 25 nM, 1 to 30 nM and 1 to 200 nM.
For the molecule `Cc1nc(NC(C)c2cccc(C(F)(F)C(C)(C)O)c2)c2cc3c(cc2n1)C(C)(C)C(=O)N3C` (single isomer, unassigned) [Compound 73, (R/S)-4-((1-(3-(1,1-difluoro-2-hydroxy-2-methylpropyl)phenyl)ethyl)amino)-2,6,8,8-tetramethyl-6,8-dihydro-7H-pyrrolo[2,3-g]quinazolin-7-one], the IC50 lay in the range of 1 to 10 nM in assay [1], 1 to 30 nM in assay [2] and 1 to 200 nM in assay [3].
For `Cc1nc(N[C@H](C)c2cccc(C(F)(F)C(C)(O)CO)c2F)c2cc3c(cc2n1)C(C)(C)C(=O)N3C` (single isomer, unassigned) [Compound 76a], the IC50 was 1 to 10 nM in assay [1], 1 to 30 nM in assay [2] and 1 to 200 nM in assay [3].
On the same counts, the results for `CC[C@]1(C)C(=O)N(C)c2cc3nc(C)nc(N[C@H](C)c4cccc(C(F)(F)C(C)(C)O)c4F)c3cc21` (single isomer, unassigned) [Compound 93a] are 1 to 10 nM, 31 to 130 nM and 1 to 200 nM.
On the same counts, the results for `CCC1(C)C(=O)N(C)c2cc3nc(C)nc(N[C@H](C)c4cccc(C(F)(F)C(C)(C)O)c4F)c3cc21` (single isomer, unassigned) [Compound 93b] are 1 to 10 nM, 31 to 130 nM and 1 to 200 nM.
Consider `COCC1(C)C(=O)N(C)c2cc3nc(C)nc(N[C@H](C)c4cccc(C(F)(F)C(C)(C)O)c4F)c3cc21` (single isomer, unassigned) [Compound 94a], for which the IC50 was in the range of 1 to 10 nM in assay [1], 1 to 30 nM in assay [2] and 1 to 200 nM in assay [3].
As to `COCC1(C)C(=O)N(C)c2cc3c(N[C@H](C)c4cccc(C(F)(F)C(C)(C)O)c4F)nc(C)nc3cc21` (single isomer, unassigned) [Compound 98a], the IC50 in assay [1] fell in the range of 1 to 10 nM; in assay [2] it was 1 to 30 nM; in assay [3] it was 1 to 200 nM.
For the molecule `CO[C@]1(C)C(=O)N(C)c2cc3c(N[C@H](C)c4cccc(C(F)(F)C(C)(C)O)c4F)nc(C)nc3cc21` (single isomer, unassigned) [Compound 101a], the IC50 in assay [1] was in the range of 1 to 10 nM; in assay [2], 31 to 130 nM; in assay [3], 1 to 200 nM.
On the same counts, the results for `CCOC1(C)C(=O)N(C)c2cc3c(N[C@H](C)c4cccc(C(F)(F)C(C)(C)O)c4F)nc(C)nc3cc21` (single isomer, unassigned) [Compound 121a] are 1 to 10 nM, 31 to 130 nM and 1 to 200 nM.
Taken in the same sequence, the figures for `COCC[C@]1(C)C(=O)N(C)c2cc3c(N[C@H](C)c4cccc(C(F)(F)C(C)(C)O)c4F)nc(C)nc3cc21` (single isomer, unassigned) [Compound 123a] were 1 to 10 nM, 1 to 30 nM and 1 to 200 nM.
For the molecule `COC[C@](C)(O)C(F)(F)c1cccc([C@@H](C)Nc2nc(C)nc3cc4c(cc23)N(C)C(=O)C4(C)C)c1F` (single isomer, unassigned) [Compound 127b], the IC50 in assay [1] fell in the range of 1 to 10 nM; in assay [2], 1 to 30 nM; in assay [3], 1 to 200 nM.
Taken in the same sequence, the figures for `Cc1nc(N[C@H](C)c2cccc(C(F)(F)C(C)(C)O)c2F)c2cc3c(cc2n1)[C@]1(CCOC1)C(=O)N3C` (single isomer, unassigned) [Compound 128a] were 1 to 10 nM, 1 to 30 nM and 1 to 200 nM.
On the same counts, the results for `Cc1nc(N[C@H](C)c2cccc(C(F)(F)C(C)(C)O)c2F)c2cc3c(cc2n1)C1(CCOC1)C(=O)N3C` (single isomer, unassigned) [Compound 128b] are 1 to 10 nM, 31 to 130 nM and 1 to 200 nM.
Regarding `Cc1nc(N[C@H](C)c2cccc(C(F)(F)C(C)(O)CN(C)C)c2F)c2cc3c(cc2n1)C(C)(C)C(=O)N3C` (single isomer, unassigned) [Compound 129a], the IC50 in assay [1] is 1 to 10 nM; in assay [2], 1 to 30 nM; in assay [3], 1 to 200 nM.
Regarding `CNCC(C)(O)C(F)(F)c1cccc([C@@H](C)Nc2nc(C)nc3cc4c(cc23)N(C)C(=O)C4(C)C)c1F` (single isomer, unassigned) [Compound 130a], the IC50 was 1 to 10 nM in assay [1], 1 to 30 nM in assay [2] and 1 to 200 nM in assay [3].
With `COCC[C@@]1(OC)C(=O)N(C)c2cc3c(N[C@H](C)c4cccc(C(F)(F)C(C)(C)O)c4F)nc(C)nc3cc21` (single isomer, unassigned) [Compound 132b], the IC50 in assay [1] was 1 to 10 nM; in assay [2], 1 to 30 nM; in assay [3], 1 to 200 nM.
Taken in the same sequence, the figures for `COC1(C)C(=O)N(C)c2cc3c(N[C@H](C)c4cccc(C(F)(F)C(C)(O)CN(C)C)c4F)nc(C)nc3cc21` (single isomer, unassigned) [Compound 135] were 1 to 10 nM, 1 to 30 nM and 1 to 200 nM.
In the case of `Cc1nc(N[C@H](C)c2cc(N)cc(C(F)(F)F)c2)c2cc3c(cc2n1)OCC(=O)N3C` [Compound 1, (R)-4-((1-(3-amino-5-(trifluoromethyl)phenyl)ethyl)amino)-2,6-dimethyl-6H-[1,4]oxazino[3,2-g]quinazolin-7(8H)-one], the figures for the IC50 in assay [1], in assay [2] and in assay [3] were 1 to 10 nM, 31 to 130 nM and 1 to 200 nM, respectively.
Consider `Cc1nc(N[C@H](C)c2cccc(C(F)(F)CO)c2F)c2cc3c(cc2n1)OCC(=O)N3C` [Compound 2, (R)-4-((1-(3-(1,1-difluoro-2-hydroxyethyl)-2-fluorophenyl)ethyl)amino)-2,6-dimethyl-6H-[1,4]oxazino[3,2-g]quinazolin-7(8H)-one], for which the values for the IC50 in assay [1], in assay [2] and in assay [3] were 1 to 10 nM, 1 to 30 nM and 1 to 200 nM, respectively.

The record behind these values is patent publication US20260209247A1, “Substituted Tricyclic Compounds” (Lupin Limited, priority 2019, published 2026).
